The test system of data set [1] is MDA-MB-468 (triple negative breast cancer). Kind of data set: Antiproliferative assay on MDA-MB-468 cells (AlamarBlue, 96 h). Format: cell-based. The following applies: Homo sapiens, mean value from several measurements. For orientation: Resazurin is reduced to fluorescent resorufin, in cell work by metabolically active cells.
In data set [2] the target is CDK2/Cyclin A (Homo sapiens, UniProt P24941). Kind of data set: Inhibition of CDK2/Cyclin A kinase activity (ADP-Glo). The class given is biochemical. A digest of the protocol: (§1)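 Kinase preincubated with compound (11 points, 4-fold steps from 50 μM) for 10 minutes at 25° C. in kinase buffer A with DTT, then reacted 40-60 minutes at 25° C. with ATP and CDKtide, Histone H1 or PDKtide substrate. ADP formation read by ADP-Glo luminescence; IC50 from four-parameter fit.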
In general terms: ADP-Glo first removes unused ATP, then detects ADP through luciferase.

Data set [3] concerns the target CDK7/Cyclin H/MNAT1 (Homo sapiens, UniProt P50613). The data set is described as follows: Inhibition of CDK7/Cyclin H/MNAT1 kinase activity (ADP-Glo). Format: biochemical. In a few lines: as §1
A short description of data set [4]: Microsomal stability in human liver microsomes (HLM). The class given is in vitro ADME. The following applies: 1 μM test compound. As to the method: The procedure for investigating the metabolism of selected compounds was carried out in microsomal fractions of the liver (of rats, mice, humans) in the presence of a phase I metabolism cofactor (NADPH).
The rate of enzymatic decomposition of the compound in liver microsomes in in vitro analysis was determined by keeping a reaction mixture comprising 0.5 mg/ml of pooled human, rat or mouse liver microsomes, 1 μM test compound, 1.5 mM […] (Carbosynth, UK, cat. no. NN108711101) and 1.5 mM magnesium chloride in 0.1 M sodium phosphate buffer (pH 7.4) in a solid-state thermostat at 37° C. (XenoTech, USA, order no. H2610, cat. no. R1000, cat. no. M1000). Incubation was carried out in three replicates.
To determine the stability of compounds under sample preparation conditions, an aliquot in two replicates with the test compound and a microsomal fraction devoid of the NADPH cofactor, which was incubated for 40 minutes at 37° C.
Reactions were stopped at 0, 10, 20, 30 and 40 min time points by way of adding an ice mixture of acetonitrile:methanol (3:1) comprising an internal standard.
Samples were then centrifuged to remove the precipitated protein, supernatants were analyzed using HPLC-MS/MS to determine in vitro clearance (CLint) of the compounds. The Agilent 6410 mass spectrometer (Agilent, USA) combined with the Agilent 1260 Infinity II HPLC liquid chromatograph (Agilent, USA) and a cooling autosampler controlled by MassHunter software (Agilent, USA) was used as an HPLC-MS/MS system. Chromatographic analysis was performed on a C18 reversed-phase HPLC column (Agilent, Waters or equivalent) in a gradient elution mode in a system of mobile phases: 0.1% formic acid in water/0.1% formic acid in acetonitrile, flow rate: 0.5 ml/min, column T=35° C. Mass spectrometric detection was performed with electrospray ionization in multiple reaction monitoring mode. Precursor ions, fragment ions and collision energies for each substance were selected experimentally.
A graph of dependence of the logarithmic ratio between substance's peak area and internal standard's peak area vs time was built. The dependent coefficient of this line corresponded to the elimination rate constant k, on the basis of which the in vitro clearance CLint was calculated:
Based on resulting in vitro clearance CLint values, the microsomal stability of the selected compounds for humans, rats and mice was concluded.
For orientation: Liver microsomes are vesicles of endoplasmic reticulum, rich in cytochrome P450 enzymes.

For data set [5], the system named is NCl-H82 (small cell lung cancer). Kind of data set: Antiproliferative assay on NCl-H82 cells (AlamarBlue, 120 h). Format: cell-based. The conditions noted are these: mean value from several measurements. As to the method: The antiproliferative activity of CDK7 inhibitors according to the present invention was evaluated in a cell test using continuous cell cultures: MDA-MB-468 (triple negative breast cancer, ATCC® HTB-132™) and NCl-H82 (small cell lung cancer, ATCC® HTB-175™) using a viable AlamarBlue dye (Thermo Fisher Scientific Inc, order no. DAL1100). The cells were grown in DMEM (PanEco, order no. C330π) and RPMI-1640 (PanEco, order no. C330π), respectively. The basal growth medium was enriched with L-glutamine at a concentration of 2 mM (PanEco, order no. Φ032) and 10% fetal bovine serum (Gibco, order no. 16140-071). The night before measurement, MDA-MB-468 adherent cells were detached from plastic with a solution of trypsin-EDTA (PanEco, order no. Π039π), the solution was then inactivated by a DMEM complete medium, centrifuged at 1000 RPM (Eppendorf, 5804 R), a suspension of cells was prepared in a DMEM complete medium, introduced into 96-well culture plates (Corning Inc, order no. 3599) at 8×10^3 cells in 100 μl of medium per well. The next day, test compounds were dissolved in DMSO and diluted with a DMEM complete medium to a final concentration ranging from 50 μM to 10 pM. Diluted compounds in a volume of 50 μl were introduced into the plate wells with cells in triplicates (the final concentration of DMSO was no more than 1%) and incubated at 37° C. in an incubator with 5% CO2 for 96 hours. NCl-H82 suspension cell line was prepared on the day of the analysis. 10×10^3 cells in 100 μl of an RPMI-1640 complete medium were added to each well of a 96-well plate. The procedure for sample dilution is as described above. Cells with test compounds were incubated at 37° C. in an incubator with 5% CO2 for 120 hours. Following incubation, […] of AlamarBlue reagent (Thermo Fisher Scientific Inc., order no. DAL1100) was added to the wells, the contents of the plates were stirred in an orbital shaker (Biosan, Latvia), then further incubated for 5.5-6 hours at 37° C. in an incubator with 5% CO2. The number of viable cells was detected using the Infinite M200Pro microplate spectrophotometer (Tecan Group Ltd, Switzerland) by way of measuring a fluorescent signal at an excitation wavelength (λEx) of 540 nm and an emission wavelength (λEm) of 590 nm.
IC50 value was calculated using the Magellan software (Tecan Group Ltd, Switzerland) by approximating experimental points by four-parameter model with the optimization by Levenberg-Marquardt: […]

Data set [6] is described as follows: General cytotoxicity on primary differentiated HepaRG cells (72 h). The conditions noted are these: human, general toxicity, mean value from several measurements. The class given is cell-based. A digest of the protocol:
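Differentiated HepaRG cells, maintained a week in basal hepatic medium with maintenance/metabolism supplement, were plated at 25×10^3 cells/well overnight. Compounds (200 μM to 0.2 nM) were added for 72 h before viability readout.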

The target in data set [7] is CDK9/Cyclin K (Homo sapiens, UniProt P50750). The data set is described as follows: Inhibition of CDK9/Cyclin K kinase activity (ADP-Glo). The class given is biochemical. In a few lines:
as §1

The nature of data set [8]: Passive membrane permeability through PAMPA artificial membrane, pH 7.4. The following applies: pH 7.4, 10 μmol, 20 hours at room temperature, mean of multiple measurements, read-out: PAMPA passive permeability Pe. Format: in vitro ADME. A digest of the protocol: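 Compound at 10 μmol in 0.01 M phosphate buffer pH 7.4 placed in donor wells over lecithin-phospholipid-impregnated PVDF filter, buffer in acceptor; 20 h at room temperature. Donor and acceptor levels measured by RP-HPLC-UV; Pe (cm/s) and membrane retention R (%) calculated.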

The mark [9] stands for this setting: mean value from several measurements, read-out: IC50 CDK2/Cyclin A.
Where [10] appears, read: mean value from several measurements, read-out: IC50 CDK7/Cyclin H/MNAT.
Where [11] appears, read: mean value from several measurements, read-out: IC50 CDK9/Cyclin K.

Like-named read-outs stand apart in the source and are kept apart here. Some results are limits rather than exact numbers.

CDK7/Cyclin H/MNAT1, sequence (P50613 whole entry): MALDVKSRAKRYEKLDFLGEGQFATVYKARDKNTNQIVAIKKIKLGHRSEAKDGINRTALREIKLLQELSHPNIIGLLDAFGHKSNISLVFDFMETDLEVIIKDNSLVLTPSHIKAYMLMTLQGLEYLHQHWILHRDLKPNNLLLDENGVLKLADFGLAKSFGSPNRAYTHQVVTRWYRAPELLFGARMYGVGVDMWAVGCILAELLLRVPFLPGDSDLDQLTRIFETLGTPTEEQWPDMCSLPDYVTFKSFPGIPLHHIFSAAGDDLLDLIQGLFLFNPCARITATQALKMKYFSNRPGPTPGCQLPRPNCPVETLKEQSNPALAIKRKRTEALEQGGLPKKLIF
CDK7/Cyclin H/MNAT1, sequence (P51946 whole entry partner): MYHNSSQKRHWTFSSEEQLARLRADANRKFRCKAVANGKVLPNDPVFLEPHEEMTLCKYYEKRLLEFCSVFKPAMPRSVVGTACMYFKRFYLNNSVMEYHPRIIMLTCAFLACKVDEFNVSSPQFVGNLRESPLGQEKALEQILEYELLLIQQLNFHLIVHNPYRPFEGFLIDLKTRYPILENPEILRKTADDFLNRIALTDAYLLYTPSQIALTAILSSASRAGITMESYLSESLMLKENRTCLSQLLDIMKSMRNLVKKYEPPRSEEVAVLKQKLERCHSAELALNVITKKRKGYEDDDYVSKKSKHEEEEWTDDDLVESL
CDK7/Cyclin H/MNAT1, sequence (P51948 whole entry partner): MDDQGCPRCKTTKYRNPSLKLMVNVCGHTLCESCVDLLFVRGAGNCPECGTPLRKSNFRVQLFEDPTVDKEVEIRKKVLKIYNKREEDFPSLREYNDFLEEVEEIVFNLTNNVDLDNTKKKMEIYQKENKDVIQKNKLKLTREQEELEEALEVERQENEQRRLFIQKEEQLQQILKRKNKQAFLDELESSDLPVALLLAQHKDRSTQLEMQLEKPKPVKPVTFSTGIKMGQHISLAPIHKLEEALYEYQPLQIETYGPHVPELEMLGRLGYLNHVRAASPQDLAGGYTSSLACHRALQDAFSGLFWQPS
CDK9/Cyclin K, sequence (P50750 whole entry): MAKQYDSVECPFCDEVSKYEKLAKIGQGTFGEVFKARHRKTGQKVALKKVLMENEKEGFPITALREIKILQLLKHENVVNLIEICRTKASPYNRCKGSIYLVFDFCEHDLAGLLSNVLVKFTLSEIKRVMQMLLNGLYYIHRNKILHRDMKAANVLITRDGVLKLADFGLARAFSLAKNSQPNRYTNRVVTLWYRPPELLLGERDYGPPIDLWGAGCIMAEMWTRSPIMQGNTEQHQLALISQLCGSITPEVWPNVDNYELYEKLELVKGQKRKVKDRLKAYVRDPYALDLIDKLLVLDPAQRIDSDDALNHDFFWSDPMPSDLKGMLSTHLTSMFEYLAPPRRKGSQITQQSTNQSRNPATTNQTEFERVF
CDK9/Cyclin K, sequence (O75909 whole entry partner): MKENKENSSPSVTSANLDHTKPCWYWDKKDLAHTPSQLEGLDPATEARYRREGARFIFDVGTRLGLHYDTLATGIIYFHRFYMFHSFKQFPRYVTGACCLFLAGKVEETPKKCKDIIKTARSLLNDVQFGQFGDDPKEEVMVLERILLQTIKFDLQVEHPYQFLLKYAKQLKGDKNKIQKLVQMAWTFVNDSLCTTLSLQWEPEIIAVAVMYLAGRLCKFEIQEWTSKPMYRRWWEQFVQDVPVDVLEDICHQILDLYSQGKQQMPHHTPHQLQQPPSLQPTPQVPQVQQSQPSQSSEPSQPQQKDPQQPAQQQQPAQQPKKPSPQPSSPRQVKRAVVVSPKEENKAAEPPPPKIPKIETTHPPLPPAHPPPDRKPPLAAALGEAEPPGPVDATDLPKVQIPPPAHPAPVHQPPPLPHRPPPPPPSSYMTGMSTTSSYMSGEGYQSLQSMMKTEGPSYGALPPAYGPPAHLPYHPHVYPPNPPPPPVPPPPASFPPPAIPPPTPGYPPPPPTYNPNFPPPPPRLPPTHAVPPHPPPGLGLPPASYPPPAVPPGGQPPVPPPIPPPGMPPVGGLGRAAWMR

Take `Cc1noc(C)c1-n1ccc2c(-c3nc(N[C@H]4CCCNC4)ncc3C(F)(F)F)c[nH]c2c1=O` [CDK7_924, 6-(3,5-dimethyl-1,2-oxazol-4-yl)-3-(2-{[(3S)-piperidin-3-yl]amino}-5-(trifluoromethyl)pyrimidin-4-yl)-1H,6H,7H-pyrrolo[2,3-c]pyridin-7-one]: the IC50 in data set [1] is below 10 nM; in data set [2] (mean of multiple measurement series, ATP 50 μM, read-out: CDK2/Cyclin A IC50) it was 7800 nM; in data set [2] (setting [9]), above 200 nM; in data set [3] (mean of multiple measurement series, ATP 10 μM, read-out: CDK7/Cyclin H/MNAT1 IC50) it was below 5 nM; in data set [3] (setting [10]) it was below 5 nM; in data set [5] it was 10 to 100 nM. Moreover, the IC50 in data set [7] (mean of multiple measurement series, ATP 50 μM, read-out: CDK9/Cyclin K IC50) is 431 nM; in data set [7] (setting [11]), above 200 nM. Further, the “In vitro clearance CLint (HLM)” value in data set [4] is “A (Clint < 20 μl/(min · mg of protein))”. For the same compound, the CC50 (commonly the concentration giving 50% cytotoxicity) at 72 h in data set [6] is above 2000 nM.
Take `Cn1ccnc1N1CCCc2c(-c3nc(NC4CCCNC4)ncc3C(F)(F)F)c[nH]c2C1=O` (stereo not drawn) [CDK7_1177]: the values for the IC50 in data set [2] (setting [9]), in data set [3] (setting [10]) and in data set [7] (setting [11]) were above 200 nM, 5 to 50 nM and above 200 nM, respectively. The “In vitro clearance CLint (HLM)” value in data set [4] is on record as “A (Clint < 20 μl/(min · mg of protein))”. In addition, the CC50 at 72 h in data set [6] was above 2000 nM.
Take `CN(C)C(=O)c1cc(-c2nc(N[C@H]3CCCNC3)ncc2C(F)(F)F)cn1C` [CDK7_1017, N,N,1-trimethyl-4-(2-{[(3S)-piperidin-3-yl]amino}-5-(trifluoromethyl)py-rimidin-4-yl)-1H-pyrrole-2-carboxamide]: the IC50 in data set [1] was 100 to 1000 nM; in data set [2] (setting [9]), above 200 nM; in data set [3] (setting [10]) it was 5 to 50 nM; in data set [5], above 1000 nM; in data set [7] (setting [11]) it was 50 to 200 nM. The Papp at 20 h, 10 μmol in data set [8] was 1 to 5 ×10⁻⁶ cm/s. In data set [6], this compound displayed a CC50 at 72 h above 2000 nM.
With `FC(F)(F)c1cnc(N[C@H]2CCCNC2)nc1-c1c[nH]c(-c2noc(C3CC3)n2)c1` [CDK7_1103], the IC50 in data set [1] was 10 to 100 nM; in data set [2] (setting [9]) it was above 200 nM; in data set [3] (setting [10]) it was below 5 nM; in data set [5], 10 to 100 nM; in data set [7] (setting [11]) it was 50 to 200 nM. The “In vitro clearance CLint (HLM)” value in data set [4] is “A (Clint < 20 μl/(min · mg of protein))”. The compound also came in with a CC50 at 72 h in data set [6] of 100 to 500 nM.
Take `O=c1c2[nH]cc(-c3nc(N[C@H]4CCCNC4)ncc3C(F)(F)F)c2ccn1-c1nccs1` [CDK7_1058, 3-(2-{[(3S)-piperidin-3-yl]amino}-5-(trifluoromethyl)py-rimidin-4-yl)-6-(1,3-thiazol-2-yl)-1H,6H,7H-pyrrolo[2,3-c]pyridin-7-one]: the IC50 is below 10 nM in data set [1]; above 200 nM in data set [2] (setting [9]); below 5 nM in data set [3] (setting [10]); below 10 nM in data set [5]; 5 to 50 nM in data set [7] (setting [11]). Also, the Papp at 20 h, 10 μmol in data set [8] was in the range of 1 to 5 ×10⁻⁶ cm/s. Besides, the CC50 at 72 h in data set [6] lay in the range of 500 to 2000 nM.
As for `O=c1c2[nH]cc(-c3nc(N[C@H]4CCCNC4)ncc3C(F)(F)F)c2ccn1C1CC1` [CDK7_1105, 6-cyclopropyl-3-(2-{[(3S)-piperidin-3-yl]amino}-5-(trifluoromethyl)py-rimidin-4-yl)-1H,6H,7H-pyrrolo[2,3-c]pyridin-7-one], the IC50 in data set [1] was below 10 nM; in data set [2] (setting [9]), above 200 nM; in data set [3] (setting [10]) it was below 5 nM; in data set [5] it was 10 to 100 nM; in data set [7] (setting [11]) it was 5 to 50 nM. Further, the Papp at 20 h, 10 μmol in data set [8] was below 1 ×10⁻⁶ cm/s. The same compound displayed a CC50 at 72 h in data set [6] of 100 to 500 nM.
As for `CN1CC=Cc2c(-c3nc(N[C@H]4CCCNC4)ncc3C(F)(F)F)c[nH]c2C1=O` [CDK7_929], the IC50 in data set [1] was below 10 nM; in data set [2] (setting [9]), above 200 nM; in data set [3] (setting [10]) it was below 5 nM; in data set [5] it was below 10 nM; in data set [7] (setting [11]), 5 to 50 nM. In addition, in data set [8], the Papp at 20 h, 10 μmol is below 1 ×10⁻⁶ cm/s. Also, in data set [6], the CC50 at 72 h fell in the range of 100 to 500 nM.
Take `O=C1NCCc2c(-c3nc(N[C@H]4CCCNC4)ncc3C(F)(F)F)c[nH]c21` [CDK7_814, 3-(2-{[(3S)-piperidin-3-yl]amino}-5-(trifluoromethyl)pyrimidin-4-yl)-1H,4H,5H,6H, 7H-pyrrolo[2,3-c]pyridin-7-one]: the IC50 in data set [1] was 10 to 100 nM; in data set [2] (setting [9]), above 200 nM; in data set [3] (setting [10]), below 5 nM; in data set [5], 10 to 100 nM; in data set [7] (setting [11]), 50 to 200 nM. Also, the Papp at 20 h, 10 μmol in data set [8] is below 1 ×10⁻⁶ cm/s. In data set [6], this compound gave a CC50 at 72 h of 500 to 2000 nM.

(Values after patent US20260137698A1, “CYCLIN-DEPENDENT KINASE 7 INHIBITORS” (JOINT STOCK COMPANY «BIOCAD», priority 2022, published 2026).)
